{"source": "paper PMC7719179", "about": "“Small molecule inhibition of Dynamin-dependent endocytosis targets multiple niche signals and impairs leukemia stem cells” (Nature Communications, 2020)", "key": {"pre-LSC self-renewal": {"tested_on": "pre-LSC self-renewal", "assay": "Serial transplantation assay of thymocytes from treated Lmo2^Tg mice", "assay_type": "in vivo, mouse", "procedure": "For primary transplantation, single-cell suspension of 2 × 10^6 thymocytes were intravenously injected into sublethally irradiated (650 Rads) isogenic Ly5.1 (Cd45.1) mice. Analysis was performed 4 weeks after transplantation and 5 × 10^6 thymocytes harvested from recipients were subsequently injected into sublethally irradiated (650 Rads) Ly5.1 (Cd45.1) recipients for the secondary and tertiary transplantations, as previously described.\nSupplementary Figure 3. In vivo effect of Dynole 34-2. a, Treatment schematic and pharmacokinetic analysis of serum levels (µ M) of Dynole 34-2 at different time points (15, 30, 60, 120 and 240 minutes) following a single intraperitoneal injection (grey arrow) in 5 recipients (A, B, C, D, E). Average maximum concentration (Cmax), the time taken to reach this maximum concentration (Tmax), and the half-life (T 1/2) of Dynole 34-2 in the serum of treated mice are indicated.\nAverage concentration for each time point is indicated (bar). b , Treatment schematic and fold expansion of donor-derived L mo2-transgenic DN3a thymocytes enumerated in the thymus of primary (I), secondary (II) and tertiary (III) recipients, assessed four weeks after transplantation of cells harvested from 5 independent mice per cohort of donors. Number of recipients engrafted for each condition is indicated. Mean ± SD (N = number of independent mice analysed), Student’s t-test;"}, "[1]": {"tested_on": "IL-3R, GM-CSFR and KIT internalization in patient-derived AML cells", "assay": "Surface expression of IL-3R, GM-CSFR and KIT in patient-derived AML cells", "assay_type": "cell-based, human", "settings": "for GM-CSFR FOLD / IL-3R FOLD / KIT FOLD: relative expression vs Unstimulated"}}, "note": "Values joined by “and” are separate entries in the source; they are usually repeats but may differ in a detail not shown here. Equal entries are not always repeated.", "data": [{"smiles": "CCCCCCCCNC(=O)C(C#N)=Cc1cn(CCCN(C)C)c2ccccc12", "note": "[Dynole 34-2, 2-Cyano-N-octyl-3-(1-(3-dimethylaminopropyl)-1H-indol-3-yl)-acrylamide]", "values": [{"measurement": "repopulating activity in serial transplantation", "setting": "pre-LSC self-renewal; tertiary recipients, result in words", "value": "complete loss of repopulating activity"}, {"measurement": "Fold expansion DN3a cells", "setting": "pre-LSC self-renewal; transplant III", "value": "0.1 fold and 0.11 fold"}, {"measurement": "GM-CSFR MFI", "setting": "[1]; AML01-021", "value": 11447, "unit": "MFI"}, {"measurement": "IL-3R MFI", "setting": "[1]; AML01-021", "value": 745, "unit": "MFI"}, {"measurement": "KIT MFI", "setting": "[1]; AML01-021", "value": 1568, "unit": "MFI"}, {"measurement": "GM-CSFR FOLD", "setting": "[1]; AML01-021", "value": 1.03}, {"measurement": "IL-3R FOLD", "setting": "[1]; AML01-021", "value": 1.00}, {"measurement": "KIT FOLD", "setting": "[1]; AML01-021", "value": 0.89}, {"measurement": "GM-CSFR MFI", "setting": "[1]; AML01-050", "value": 15894, "unit": "MFI"}, {"measurement": "IL-3R MFI", "setting": "[1]; AML01-050", "value": 4010, "unit": "MFI"}, {"measurement": "KIT MFI", "setting": "[1]; AML01-050", "value": 273, "unit": "MFI"}, {"measurement": "GM-CSFR FOLD", "setting": "[1]; AML01-050", "value": 1.01}, {"measurement": "IL-3R FOLD", "setting": "[1]; AML01-050", "value": 1.14}, {"measurement": "KIT FOLD", "setting": "[1]; AML01-050", "value": 1.25}, {"measurement": "GM-CSFR MFI", "setting": "[1]; AML01-072", "value": 971, "unit": "MFI"}, {"measurement": "IL-3R MFI", "setting": "[1]; AML01-072", "value": 7383, "unit": "MFI"}, {"measurement": "KIT MFI", "setting": "[1]; AML01-072", "value": 1318, "unit": "MFI"}, {"measurement": "GM-CSFR FOLD", "setting": "[1]; AML01-072", "value": 1.12}, {"measurement": "IL-3R FOLD", "setting": "[1]; AML01-072", "value": 1.05}, {"measurement": "KIT FOLD", "setting": "[1]; AML01-072", "value": 1.74}, {"measurement": "GM-CSFR MFI", "setting": "[1]; AML01-226", "value": 10157, "unit": "MFI"}, {"measurement": "IL-3R MFI", "setting": "[1]; AML01-226", "value": 983, "unit": "MFI"}, {"measurement": "KIT MFI", "setting": "[1]; AML01-226", "value": 612, "unit": "MFI"}, {"measurement": "GM-CSFR FOLD", "setting": "[1]; AML01-226", "value": 1.05}, {"measurement": "IL-3R FOLD", "setting": "[1]; AML01-226", "value": 0.99}, {"measurement": "KIT FOLD", "setting": "[1]; AML01-226", "value": 0.58}, {"measurement": "GM-CSFR MFI", "setting": "[1]; AML01-307", "value": 649, "unit": "MFI"}, {"measurement": "IL-3R MFI", "setting": "[1]; AML01-307", "value": 4023, "unit": "MFI"}, {"measurement": "KIT MFI", "setting": "[1]; AML01-307", "value": 5991, "unit": "MFI"}, {"measurement": "GM-CSFR FOLD", "setting": "[1]; AML01-307", "value": 1.01}, {"measurement": "IL-3R FOLD", "setting": "[1]; AML01-307", "value": 0.94}, {"measurement": "KIT FOLD", "setting": "[1]; AML01-307", "value": 0.93}, {"measurement": "GM-CSFR MFI", "setting": "[1]; AML02-078", "value": 13405, "unit": "MFI"}, {"measurement": "IL-3R MFI", "setting": "[1]; AML02-078", "value": 4410, "unit": "MFI"}, {"measurement": "KIT MFI", "setting": "[1]; AML02-078", "value": 1516, "unit": "MFI"}, {"measurement": "GM-CSFR FOLD", "setting": "[1]; AML02-078", "value": 1.27}, {"measurement": "IL-3R FOLD", "setting": "[1]; AML02-078", "value": 1.17}, {"measurement": "KIT FOLD", "setting": "[1]; AML02-078", "value": 0.91}, {"measurement": "GM-CSFR MFI", "setting": "[1]; AML02-123", "value": 1180, "unit": "MFI"}, {"measurement": "IL-3R MFI", "setting": "[1]; AML02-123", "value": 2544, "unit": "MFI"}, {"measurement": "KIT MFI", "setting": "[1]; AML02-123", "value": 34855, "unit": "MFI"}, {"measurement": "GM-CSFR FOLD", "setting": "[1]; AML02-123", "value": 1.42}, {"measurement": "IL-3R FOLD", "setting": "[1]; AML02-123", "value": 1.10}, {"measurement": "KIT FOLD", "setting": "[1]; AML02-123", "value": 0.82}, {"measurement": "GM-CSFR MFI", "setting": "[1]; AML02-232", "value": 16645, "unit": "MFI"}, {"measurement": "IL-3R MFI", "setting": "[1]; AML02-232", "value": 506, "unit": "MFI"}, {"measurement": "KIT MFI", "setting": "[1]; AML02-232", "value": 357, "unit": "MFI"}, {"measurement": "GM-CSFR FOLD", "setting": "[1]; AML02-232", "value": 1.09}, {"measurement": "IL-3R FOLD", "setting": "[1]; AML02-232", "value": 1.00}, {"measurement": "KIT FOLD", "setting": "[1]; AML02-232", "value": 0.82}, {"measurement": "GM-CSFR MFI", "setting": "[1]; AML03-330", "value": 10769, "unit": "MFI"}, {"measurement": "IL-3R MFI", "setting": "[1]; AML03-330", "value": 356, "unit": "MFI"}, {"measurement": "KIT MFI", "setting": "[1]; AML03-330", "value": 372, "unit": "MFI"}, {"measurement": "GM-CSFR FOLD", "setting": "[1]; AML03-330", "value": 1.12}, {"measurement": "IL-3R FOLD", "setting": "[1]; AML03-330", "value": 0.98}, {"measurement": "KIT FOLD", "setting": "[1]; AML03-330", "value": 0.79}, {"measurement": "GM-CSFR MFI", "setting": "[1]; AML03-331", "value": 9530, "unit": "MFI"}, {"measurement": "IL-3R MFI", "setting": "[1]; AML03-331", "value": 798, "unit": "MFI"}, {"measurement": "KIT MFI", "setting": "[1]; AML03-331", "value": 1709, "unit": "MFI"}, {"measurement": "GM-CSFR FOLD", "setting": "[1]; AML03-331", "value": 0.88}, {"measurement": "IL-3R FOLD", "setting": "[1]; AML03-331", "value": 1.00}, {"measurement": "KIT FOLD", "setting": "[1]; AML03-331", "value": 0.98}, {"measurement": "GM-CSFR MFI", "setting": "[1]; AML4", "value": 853, "unit": "MFI"}, {"measurement": "IL-3R MFI", "setting": "[1]; AML4", "value": 1014, "unit": "MFI"}, {"measurement": "KIT MFI", "setting": "[1]; AML4", "value": 5020, "unit": "MFI"}, {"measurement": "GM-CSFR FOLD", "setting": "[1]; AML4", "value": 1.48}, {"measurement": "IL-3R FOLD", "setting": "[1]; AML4", "value": 0.99}, {"measurement": "KIT FOLD", "setting": "[1]; AML4", "value": 0.98}, {"measurement": "GM-CSFR MFI", "setting": "[1]; AML16", "value": 4656, "unit": "MFI"}, {"measurement": "IL-3R MFI", "setting": "[1]; AML16", "value": 827, "unit": "MFI"}, {"measurement": "KIT MFI", "setting": "[1]; AML16", "value": 6207, "unit": "MFI"}, {"measurement": "GM-CSFR FOLD", "setting": "[1]; AML16", "value": 0.80}, {"measurement": "IL-3R FOLD", "setting": "[1]; AML16", "value": 0.78}, {"measurement": "KIT FOLD", "setting": "[1]; AML16", "value": 0.87}, {"measurement": "GM-CSFR MFI", "setting": "[1]; AML17", "value": 9268, "unit": "MFI"}, {"measurement": "IL-3R MFI", "setting": "[1]; AML17", "value": 6591, "unit": "MFI"}, {"measurement": "KIT MFI", "setting": "[1]; AML17", "value": 21009, "unit": "MFI"}, {"measurement": "GM-CSFR FOLD", "setting": "[1]; AML17", "value": 1.01}, {"measurement": "IL-3R FOLD", "setting": "[1]; AML17", "value": 1.12}, {"measurement": "KIT FOLD", "setting": "[1]; AML17", "value": 1.17}, {"measurement": "GM-CSFR MFI", "setting": "[1]; AML18", "value": 13295, "unit": "MFI"}, {"measurement": "IL-3R MFI", "setting": "[1]; AML18", "value": 2046, "unit": "MFI"}, {"measurement": "KIT MFI", "setting": "[1]; AML18", "value": 1285, "unit": "MFI"}, {"measurement": "GM-CSFR FOLD", "setting": "[1]; AML18", "value": 1.08}, {"measurement": "IL-3R FOLD", "setting": "[1]; AML18", "value": 1.00}, {"measurement": "KIT FOLD", "setting": "[1]; AML18", "value": 1.36}, {"measurement": "GM-CSFR MFI", "setting": "[1]; AML34", "value": 3573, "unit": "MFI"}, {"measurement": "IL-3R MFI", "setting": "[1]; AML34", "value": 397, "unit": "MFI"}, {"measurement": "KIT MFI", "setting": "[1]; AML34", "value": 4661, "unit": "MFI"}, {"measurement": "GM-CSFR FOLD", "setting": "[1]; AML34", "value": 1.00}, {"measurement": "IL-3R FOLD", "setting": "[1]; AML34", "value": 0.99}, {"measurement": "KIT FOLD", "setting": "[1]; AML34", "value": 1.07}, {"measurement": "GM-CSFR MFI", "setting": "[1]; AML54", "value": 1872, "unit": "MFI"}, {"measurement": "IL-3R MFI", "setting": "[1]; AML54", "value": 508, "unit": "MFI"}, {"measurement": "KIT MFI", "setting": "[1]; AML54", "value": 10397, "unit": "MFI"}, {"measurement": "GM-CSFR FOLD", "setting": "[1]; AML54", "value": 1.08}, {"measurement": "IL-3R FOLD", "setting": "[1]; AML54", "value": 0.86}, {"measurement": "KIT FOLD", "setting": "[1]; AML54", "value": 0.90}, {"measurement": "internalization of IL-3R and GM-CSFR", "setting": "[1]; patient-derived AML cells stimulated with IL-3 and GM-CSF, result in words", "value": "prevented the internalization"}]}]}
